Experimental data: the supplement of paper PMC7661543
± gives the standard deviation of the averaged measurements.

What was measured:
Test in all cases: relative cell number vs DMSO control (72 h) (% of DMSO); higher = less growth inhibition (more cells)
Details in all cases: sgRNA knockout: sgNT
ZR-75-1 = system: ZR-75-1
Description: (§1)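 QMAP-Seq: a pool of 5 breast cancer cell lines (ZR-75-1, SKBR3, HCC-38, MDA-MB-231, BT-20), each carrying 12 doxycycline-inducible Cas9 sgRNA perturbations (11 knockouts plus non-targeting sgNT), was treated with compounds for 72 h at four 10-fold doses (10 nM-10 uM or 1 nM-1 uM range). Barcodes were amplified and sequenced, and cell number was interpolated from 293T spike-in standard curves. The result is expressed as % of the median of DMSO wells. Two biological replicates.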

BT-20 = system: BT-20
Description: as §1

MDA-MB-231 = system: MDA-MB-231
Description: as §1

SKBR3 = system: SKBR3
Description: as §1

HCC-38 = system: HCC-38
Description: as §1

Compound | relative cell number (ZR-75-1; 10 nM) | relative cell number (ZR-75-1; 100 nM) | relative cell number (ZR-75-1; 1000 nM) | relative cell number (ZR-75-1; 10000 nM) | relative cell number (BT-20; 10 nM) | relative cell number (BT-20; 100 nM) | relative cell number (BT-20; 1000 nM) | relative cell number (BT-20; 10000 nM) | relative cell number (MDA-MB-231; 10 nM) | relative cell number (MDA-MB-231; 100 nM) | relative cell number (MDA-MB-231; 1000 nM) | relative cell number (MDA-MB-231; 10000 nM) | relative cell number (SKBR3; 10 nM) | relative cell number (SKBR3; 100 nM) | relative cell number (SKBR3; 1000 nM) | relative cell number (SKBR3; 10000 nM) | relative cell number (HCC-38; 10 nM) | relative cell number (HCC-38; 100 nM) | relative cell number (HCC-38; 1000 nM) | relative cell number (HCC-38; 10000 nM) | relative cell number (ZR-75-1; 1 nM) | relative cell number (BT-20; 1 nM) | relative cell number (MDA-MB-231; 1 nM) | relative cell number (SKBR3; 1 nM) | relative cell number (HCC-38; 1 nM)
COc1cc(-n2c(=S)[nH]c3ccccc3c2=O)c(Cl)cc1Cl [Mdivi1] | 135 ± 44 | 77.9 ± 7.1 | 80.6 ± 2.8 | 41.5 ± 26 | 76.5 ± 8.6 | 98.8 ± 5.6 | 83.6 ± 2.9 | 84 ± 3.7 | 93.3 ± 18 | 84.9 ± 27 | 94.7 ± 11 | 50.1 ± 5.6 | 76 ± 18 | 104 ± 6.3 | 60 ± 1.5 | 44.2 ± 5.5 | 95.3 ± 11 | 93.4 ± 13 | 100 ± 10 | 83.1 ± 20 |  |  |  |  | 
COC(=O)Nc1nc2cc(C(=O)c3ccccc3)ccc2[nH]1 [Mebendazole] | 71.7 ± 21 | 64.7 ± 17 | 36.8 ± 8.2 | 14 ± 8.6 | 87.1 ± 7.3 | 78.9 ± 21 | 25 ± 7.1 | 20.6 ± 6.8 | 110 ± 10 | 79.4 ± 38 | 31.4 ± 12 | 26.5 ± 1.1 | 96.3 ± 10 | 59.8 ± 7.3 | 10.6 ± 9.4 | 7.21 ± 5.9 | 97.2 ± 18 | 83.2 ± 4.6 | 18.2 ± 7.5 | 19.9 ± 0.56 |  |  |  |  | 
CN(Cc1cnc2nc(N)nc(N)c2n1)c1ccc(C(=O)N[C@@H](CCC(=O)O)C(=O)O)cc1 [Methotrexate] | 89.6 ± 11 | 38.6 ± 12 | 40.6 ± 11 | 36.9 ± 8 | 98.43 ± 0.61 | 80.6 ± 3.4 | 51.2 ± 16 | 37.8 ± 12 | 97.5 ± 4.3 | 101 ± 17 | 91.2 ± 9.4 | 33.9 ± 8.7 | 116 ± 42 | 41 ± 1.5 | 22.1 ± 12 | 25.5 ± 6.4 | 105 ± 3.4 | 56 ± 1.1 | 41.2 ± 0.74 | 35.2 ± 0.52 |  |  |  |  | 
O=C1c2c(O)ccc(O)c2C(=O)c2c(NCCNCCO)ccc(NCCNCCO)c21 [Mitoxantrone] | 37.2 ± 4 | 22.3 ± 12 | 13.4 ± 1.2 | 7.6 ± 0.68 | 55 ± 13 | 39.2 ± 9.2 | 19.5 ± 5 | 5.45 ± 2 | 20.8 ± 7.3 | 17.3 ± 0.44 | 4.896 ± 0.008 | 6.65 ± 4.1 | 37.3 ± 21 | 22.3 ± 5.1 | 4.5 ± 0.26 | 4.94 ± 3.2 | 33.9 ± 2.3 | 30.46 ± 0.2 | 7.76 ± 0.68 | 7.21 ± 2.4 |  |  |  |  | 
CCNC(=O)c1noc(-c2cc(C(C)C)c(O)cc2O)c1-c1ccc(CN2CCOCC2)cc1 [NVPAUY922] | 89.8 ± 44 | 27.1 ± 1.1 | 25.7 ± 6.9 |  | 81.1 ± 1.5 | 48 ± 3.7 | 37.9 ± 5.3 |  | 71.4 ± 5.7 | 16 ± 4.2 | 9.36 ± 1.3 |  | 78.6 ± 19 | 30 ± 8.8 | 18.5 ± 5.7 |  | 67.6 ± 2.1 | 31.7 ± 5.1 | 30 ± 6 |  | 107 ± 6.7 | 96.7 ± 24 | 111 ± 40 | 116 ± 31 | 112 ± 16
